Test results as given in patent US20210341371A1, “CELL SCANNING TECHNOLOGIES AND METHODS OF USE THEREOF” (priority 2018, published 2021).
Like-named read-outs stand apart in the source and are kept apart here.

Assays:
[1] = tested on: RBC membrane permeability; format: cell-based, human
Description: The present disclosure also provides technologies for assessing (e.g., identifying and/or characterizing) agents and/or other compositions that modulate RBC membrane permeability (collectively, “RBC Permeability Modulating Agents”). Provided technologies may be useful for identifying RBC Permeability Modulating Agents. In some instances, a RBC Permeability Modulating Agent is expected to effect the health state of a subject exposed it (e.g., a beneficial or adverse effect). For example, provided methods allow for the evaluation of agents and/or compositions intended for use in humans (e.g., a drug candidate or prosthetic material).
In some embodiments, a sample is analyzed within a particular time period after being subjected to an agent or composition (e.g., within about 5 minutes, about 10 minutes, about 30 minutes, about 1 hour, about 2 hours, or about 5 hours). In some embodiments, a method further comprises evaluating dose response of an agent or composition (e.g., by subjecting each of a plurality of samples to varying concentrations of agent or composition).
(§1) A sample of whole blood from a healthy volunteer was drawn into ACD anticoagulant. The unwashed sample was divided into aliquots and was analyzed using the Prior Shine Technology and/or the Provided Cell Scanning Technologies. The following outputs were obtained from the sample:
“Pk0” coincided with the minimum absolute osmotic pressure (e.g., most hypotonic pressure) to which a cell can be subjected without loss of integrity. Pk0 can be identified by determining the right-most extent of the intact cell population in the cell-by-cell graph, i.e., the point of osmolality immediately preceding the point at which the cells ruptured. In FIG. 1a, this minimum pressure is the “peak” 106. […]
Using the technologies described herein, a cell-by-cell analysis was converted into a plot of percent change of cell volume vs. osmolality (“Cell Scan Plot”) by converting the individual peak voltage into a cell volume, then calculating a mean volume for each 100 cells, and plotting the means to generate the Cell Scan Plot. The percentage change of cell volume at each osmolality is calculated and compared to the mean cell volume of an isotonic cell (e.g., FIG. 1b). […]
The Fluid Flux Curve (FFC) was determined by taking the first order derivative (with respect to osmolality) of Cell Scan Plot (FIG. 1c). […]
Using the technologies provided herein, agents were tested for potential adverse in vivo effects prior to use in humans and/or animals. For example, a blood sample from a healthy volunteer was contacted with amphotericin B (0.5 μg/mL) and was analyzed using the provided cell scanning technologies. […]

[2] = tested on: RBC membrane permeability; test: Cell scan of blood samples from patients/subjects (RBC membrane permeability parameters), including effect of medication taken; format: in vivo, human; settings: for effect of medication on the output of the cell scanning technologies: medication the subject has taken or is taking
Description: The present disclosure encompasses the recognition that one or more medications that the subject has taken or is taking may affect the output of the cell scanning technologies described herein. The effect of a particular medication on the output of the cell scanning technologies may vary by medication, e.g., vary in magnitude and/or in length of effect, and in some cases, a particular medication may have no effect at all. […] Accordingly, in some embodiments, provided methods further comprise determining whether or not the subject has taken or is taking a particular medication. In some embodiments, if the subject has taken a medication known to have a particular effect on the output of the cell scanning technologies, then a determined RBC membrane permeability parameter should be compared to a suitable reference control parameter (e.g., a reference control parameter determined in the presence or absence of the particular medication). In some embodiments, if the subject has taken a medication known to have a particular effect on the output of the cell scanning technologies, then further diagnostic assessment is warranted.
as §1
“Pk0” coincided with the minimum absolute osmotic pressure (e.g., most hypotonic pressure) to which a cell can be subjected without loss of integrity. Pk0 can be identified by determining the right-most extent of the intact cell population in the cell-by-cell graph, i.e., the point of osmolality immediately preceding the point at which the cells ruptured. In FIG. 1a, this minimum pressure is the “peak” 106. As the osmolality of the surrounding solution was reduced, the red blood cell ruptures and forms a ghost cell, which releases its contents into the surrounding medium.
Using the technologies described herein, a cell-by-cell analysis was converted into a plot of percent change of cell volume vs. osmolality (“Cell Scan Plot”) by converting the individual peak voltage into a cell volume, then calculating a mean volume for each 100 cells, and plotting the means to generate the Cell Scan Plot. The percentage change of cell volume at each osmolality is calculated and compared to the mean cell volume of an isotonic cell (e.g., FIG. 1b). On such a plot, Pk0 (see 101) is the osmotic pressure at which the net water flow is zero (i.e., when a cell achieved its maximum volume, i.e., when it is a perfect sphere). As described herein, in some embodiments, Pk0 can be used as an indicator of an individual's health status.
The Fluid Flux Curve (FFC) was determined by taking the first order derivative (with respect to osmolality) of Cell Scan Plot (FIG. 1c). In an FFC, Pk0 occurred at the zero crossing (101), which was where the slope of the Cell Scan Plot changes from positive to negative. A positive value on the FFC represented a net flow of fluid into the cell, while negative rates represented a net flow of fluid out of the cell. In the FFC, the positive peak 102 and negative peak 103 corresponded to the maximum and minimum, respectively, on the FFC. As used herein, “Pymax” is the magnitude of fluid flux at the maximum, and “Pymin” is the magnitude of fluid flux at the minimum.
Table 7 is organized by indication and reports the mean values for various parameters tested.
A person was tested using cell scanning technologies described herein at a check-up 2 months after being diagnosed with grand mal epilepsy. The results were within normal limits (as they were on a prior visit), except for the Pk0 which had shifted approx. 10 mOsm/kg to 136 mOsm/kg. Such a change may be attributed to their prescribed medication, phenytoin.

OCCS [beta-mercaptoethanol]
effect of HgCl2 on RBC membrane permeability after addition of chelator [1]: the effect was reversed and RBC membrane permeability was restored

[Cl][Hg][Cl] [HgCl2]
flow of water across the membrane ([1]; unwashed whole blood from a healthy volunteer treated with 65 μM HgCl2): no flow of water across the membrane was detected | RBC membrane permeability ([1]; unwashed whole blood from a healthy volunteer treated with 65 μM HgCl2, monitored over time): essentially eliminated

O=C1NC(=O)C(c2ccccc2)(c2ccccc2)N1 [phenytoin]
shift of Pk0 versus prior visit ([2]; Patient X on prescribed phenytoin, change may be attributed to the medication): approx. 10 mOsm/kg | Pk0 ([2]; Patient X, person with grand mal epilepsy, 2 months after diagnosis, on prescribed phenytoin, change may be attributed to the medication): 136 mOsm/kg | effect of medication on the output of the cell scanning technologies [2]: have an effect on the output

CC(=O)CC(c1ccccc1)c1c(O)c2ccccc2oc1=O (stereo not drawn) [warfarin]
P0 (TOTAL) ([2]; mean value for patients with pulmonary embolus on warfarin, all patients (N=4)): 149.4 | P0 (died) ([2]; mean value for patients with pulmonary embolus on warfarin, subset who died (N=1)): 157

CC(C)(S)[C@@H](N)C(=O)O [penicillamine]
effect of medication on the output of the cell scanning technologies [2]: have an effect on the output

C[C@@H]1[C@H](O)[C@@H](C)/C=C/C=C/C=C/C=C/C=C/C=C/C=C/[C@H](O[C@@H]2O[C@H](C)[C@@H](O)[C@H](N)[C@@H]2O)C[C@@H]2O[C@](O)(C[C@@H](O)C[C@@H](O)[C@H](O)CC[C@@H](O)C[C@@H](O)CC(=O)O[C@H]1C)C[C@H](O)[C@H]2C(=O)O [amphotericin B]
effect of medication on the output of the cell scanning technologies [2]: have an effect on the output | Pk0 ([1]; blood sample from a healthy volunteer contacted with amphotericin B 0.5 μg/mL, normal Pk0 approx. 142 mOsm/kg): 85 mOsm/kg

CCC1(c2ccccc2)C(=O)NC(=O)NC1=O [phenobarbitone]
effect of medication on the output of the cell scanning technologies [2]: have an effect on the output
